According to US4874862A, “Process for preparing guanine derivatives” (Warner-Lambert Company, priority 1987, dated 1989):

Tested on: T-cells
Assay: standard test of selective cytotoxicity for T-cells in the presence of 2'-deoxyguanosine
Type: cell-based
Settings: in the presence of 10 uM of 2'-deoxyguanosine
Procedure: PNP-4 activity was measured radiochemically by measuring the formation of [^14 -C]-hypoxanthine from [^14 -C]-inosine [Biomedicine, 33, 39 (1980)] using human erythrocyte as the enzyme source. The same compounds also were found by a standard test (Science, 214, 1137, (1981)] to be selectively cytotoxic for T-cells in the presence of 2'-deoxyguanosine at a similar concentration range. For example, 8-amino-9-[(4-methylphenyl)methyl]guanine is selectively cytotoxic to T-cells at a concentration of about 3.1 uM in the presence of 10 uM of 2'-deoxyguanosine. Similarly, 8-amino-9-[(4-methoxyphenyl)methyl]guanine is selectively cytotoxic to T-cells at a concentration of about 1.1 uM in the presence of 10 uM of 2'-deoxyguanosine. On the other hand, these compounds were nontoxic to B-cells in the presence or absence of the same amount of 2'-deoxyguanosine. Since T-cells play a central role in immune response, use of the compounds of the invention is contemplated for the immunoregulation of rejection in transplantation and autoimmune disease such as rheumatoid arthritis, systemic lupus erythematosus, inflammatory bowel disease, cancer, juvenile diabetes, myasthenia gravis, multiple sclerosis, and viral diseases. […]

Structure (SMILES)	concentration at which selectively cytotoxic to T-cells
COc1ccc(Cn2c(N)nc3c(=O)[nH]c(N)nc32)cc1 [8-amino-9-[(4-methoxyphenyl)methyl]guanine]	about 1.1 uM
Cc1ccc(Cn2c(N)nc3c(=O)[nH]c(N)nc32)cc1 [8-amino-9-[(4-methylphenyl)methyl]guanine]	about 3.1 uM
